Consider eight compounds from patent US11390868B2, “Treatment of filaggrin (FLG) related diseases by modulation of FLG expression and activity” (CuRNA, Inc., priority 2009, dated 2022).

Where a name gives a salt, the structure may show the parent alone. Read-outs that look alike come from different tables or passages of the source.

Data set [1] concerns FLG Natural Antisense Transcripts in primary keratinocytes. Kind of data set: Real time PCR of FLG Natural Antisense Transcripts after treatment of primary keratinocytes with small compounds. The following applies: small compounds 1 uM, dosed twice, 24 h after second dosing, vs vehicle control (FIG. 5). In kind it is cell-based. The method, then:
Primary keratinocytes (from Promocell) were grown in a growth media (Keratinocyte Growth Media, Promocell cat #C-2011) at 37° C. with 5% CO2. One day before the experiment the cells were replated at approximately 5×10^4/ml (or about ⅓ dilution from 90% confluency) into 24-well collagen-coated plates (Beckton Dickinson BioCoat plates cat #35 6408) and incubated at 37° C. and 5% CO2 overnight. On the day of the experiment the media in the 24-well plates was changed to 1 ml fresh growth media. Small compounds were diluted in DMSO to the concentration of 1000 uM. On the day of the experiment this solution was diluted 1:100 in fresh growth media. Pure DMSO was diluted in media at the same ratio […] to treat vehicle control samples. To dose one well, […] of the compound or pure DMSO solution was added directly to well of a 24-well plate. The final concentration of compounds was 1 uM. Dosing volume was adjusted if a different concentration of compound was desired. After dosing the plates were incubated overnight at 37° C., 5% CO2. 24 h after addition of small compounds the media was replaced with fresh growth media and the dosing was repeated as described above. 24 h after second dosing RNA was extracted from the cells using SV Total RNA Isolation System from Promega (cat #Z3105) following the manufacturers' instructions. 600 ng of total RNA was added to the reverse transcription reaction performed using High Capacity cDNA kit from Applied Biosystems (cat #4368813) as described in the manufacturer's protocol. The cDNA from this reverse transcription reaction was used to monitor gene expression by real time PCR using BI Taqman Gene Expression Mix (cat #4369510) and primers/probes designed by AB (for example, assay ID #Hs00856927_gl for FLG). The following PCR cycle was used: 50° C. for 2 min, 95° C. for 10 min, 40 cycles of (95° C. for 15 seconds, 60° C. for […]) using StepOne thermal cycler (ABI). […] Fold change in gene expression after treatment with small compounds was calculated based on the difference in 18S-normalized dCt values between treated and mock-transfected samples.
(In general: Quantitative PCR measures a nucleic acid by following its amplification.)

The test system of the next data set is TNF-alpha. The following applies: several case studies and a pilot study; cited from earlier work.
The conditions of data set [2]: cited from earlier work; for solubility in ethanol / alcohol: anhydrous ethanol or alcohol.
For data set [3] the following is noted: cited from earlier work.
For data set [4] the following is noted: cited from earlier work. This is another data set of the same source.
Data set [5] relates to patients with severe head trauma. The following applies: peripheral vein injection plus standard procedures; cited from earlier work.

Regarding `CC(NC(C)(C)C)C(=O)c1cccc(Cl)c1.Cl` (racemic) [Bupropion, (±)-1-(3-chlorophenyl)-2-[(1,1-dimethylethyl)amino]-1-propanone hydrochloride], in data set [1], the “levels of FLG Natural Antisense Transcripts” value (“levels” below) is “significantly decreased”. Besides, the “level of inflammatory mediator TNF-alpha” value with TNF-alpha is “lowers”. The “solubility in water” value in data set [2] was “highly soluble”.
As for `CCc1ccc(CCOc2ccc(CC3SC(=O)NC3=O)cc2)nc1` (racemic) [Pioglitazone hydrochloride, [(±)-5-[[4-[2-(5-ethyl-2-pyridinyl)ethoxy]phenyl]methyl]-2,4-]thiazolidinedione monohydrochloride], the “solubility in N,N-dimethylformamide” value in data set [2] (N,N-dimethylformamide) is “soluble”. In data set [2], the solubility in acetone result is on record as “very slightly soluble”, the “solubility in ethanol / alcohol” value is given as “slightly soluble” and the “solubility in water” value is given as “practically insoluble”. For the same compound, in data set [2] (acetonitrile), the solubility in acetonitrile entry is on record as “very slightly soluble”. In data set [2] (ether), the solubility in ether entry was “insoluble”.
Regarding `COC(=O)C1=C(C)NC(C)=C(C(=O)O[C@@H]2CCCN(Cc3ccccc3)C2)[C@@H]1c1cccc([N+](=O)[O-])c1.Cl` (relative stereo) [Bendipine, (4R)-rel-1,4-Dihydro-2,6-dimethyl-4-(3-nitrophenyl)-3,5-pyridinedicarboxylic acid 3-methyl 5-[(3R)-1-(phenylmethyl)-3-piperidinyl]ester hydrochloride], the “levels” value in data set [1] is listed as “significantly decreased”.
Turning to `COC(=O)C1=C(C)NC(C)=C(C(=O)OC(C)C)C1c1cccc2nonc12` (stereo not drawn) [Isradipine, 3,5-Pyridinedicarboxylic acid, 4-(4-benzofurazanyl)-1,4-dihydro-2,6-dimethyl-, methyl 1-methylethyl ester], in data set [2], the solubility in acetone result is “freely soluble”, the solubility in chloroform result is “freely soluble”, the “solubility in ethanol / alcohol” value is recorded as “soluble” and the “solubility in water” value was “practically insoluble”. In addition, the “solubility in methylene chloride” value in data set [2] (methylene chloride) is listed as “freely soluble”. Further, the solubility in water in data set [2] (37° C.) was less than 10 mg/L.
For `O=C([O-])CCc1nc(-c2ccccc2)c(-c2ccccc2)o1.[K+]` [Oxaprozin potassium, 4,5-diphenyl-2-oxazolepropionic acid, potassium salt], the PK in water in data set [3] (in water) is on record as 9.7. In data set [2], the “solubility in ethanol / alcohol” value is given as “slightly soluble” and the “solubility in water” value is on record as “very soluble”.
For `CN1C(C(=O)Nc2ccccn2)=C(O)c2ccccc2S1(=O)=O` [Piroxicam, 4-hydroxyl-2-methyl-N-2-pyridinyl-2H-1,2,-benzothiazine-3-carboxamide 1,1-dioxide], the “pKa of weak basic pyridyl nitrogen” value in data set [3] (pyridyl nitrogen) is on record as 1.8. In data set [2] (aqueous solutions), the “solubility in aqueous solutions” value is listed as “slightly soluble”. Moreover, the “solubility in dilute acid” value in data set [2] (dilute acid) is “sparingly soluble”. Further, in data set [2], the “solubility in ethanol / alcohol” value is listed as “slightly soluble” and the “solubility in water” value is on record as “sparingly soluble”. In addition, the “solubility in most organic solvents” value in data set [2] (most organic solvents) is on record as “sparingly soluble”.
As to `CC1(C)O[C@@H]2[C@@H](CO[C@@]3(COS(N)(=O)=O)OC(C)(C)O[C@@H]23)O1` [Topiramate, 2,3:4,5-Di-O-isopropylidene-β-D-fructopyranose sulfamate], the “levels” value in data set [1] is on record as “significantly decreased”. In data set [2], the solubility in acetone entry is listed as “freely soluble”, the solubility in chloroform result is “freely soluble” and the “solubility in ethanol / alcohol” value was “freely soluble”. Further, the “solubility in alkaline solutions” value in data set [2] (alkaline solutions containing sodium hydroxide or sodium phosphate, pH of 9 to 10) is “most soluble”. Besides, the “solubility in dimethyl sulfoxide” value in data set [2] (dimethyl sulfoxide) was “freely soluble”. For the same compound, in data set [4], the “pH of saturated solution” value is listed as 6.3.
On to `COCCOC(=O)C1=C(C)NC(C)=C(C(=O)OC(C)C)C1c1cccc([N+](=O)[O-])c1` (stereo not drawn) [nimodipine, isopropyl 2-methoxyethyl 1,4-dihydro-2,6-dimethyl-4-(m-nitrophenyl)-3,5-pyridinedicarboxylate], for which, in data set [5], the “Glasgow outcome score values” was “higher”, the cerebral metabolism result was “improved”, the cerebral perfusion pressure result is “significantly higher” and the intracranial pressure result is recorded as “lower”. For the same compound, in data set [5], the jugular glucose result is reported as “lower”, the jugular lactate entry is given as “lower” and the “jugular venous oxygen saturation” value was “significantly higher”.
